From patent US10849918B2, “Composition for optic nerve protection” (TOHOKU TECHNO ARCH CO., LTD., priority 2015, dated 2020)

Tested on: retinal ganglion cells
Test: Test 2: optic nerve protection in optic nerve crush injury murine model, oral administration
Type: in vivo, mice
Details: summary statement; oral or intraocular administration, optic nerve crush injury model and NMDA model
Method: The nerve protection effect of each ingredient was verified by using a rodent glaucoma pathological model of an optic nerve crush injury murine model.
Test animal: male C57BL/6 strain mice, 9-12 weeks old, each approximately 25 g
The experiment was conducted according to the following method. The number of samples in each group was 8.
(2) To the mice in the experimental groups, each ingredient prepared as shown in Table 2 was orally administered at a dosage as shown in Table 2 once a day from one week before the optic nerve crush treatment; to the mice in the control groups, 100 μL of distilled water or phosphate-buffered saline (containing no Ca or Mg, pH: 7.4, hereinafter abbreviated as “PBS(−)”) was administered likewise.
(3) The optic nerve crush treatment on the mice was performed under anesthesia by administering ketamine (100 mg/kg) and xylazine (5 mg/kg). The optic nerve crush treatment was performed on only single eyes, and the fellow eyes were untreated. After the optic nerve crush treatment was completed, an antibacterial ophthalmic ointment was instilled to the eyes of the mice. […]
(7) The number of cells labeled with Fluoro-Gold was counted to obtain an average number at the 12 sites. […]

With `COc1ccc([C@@H]2CC(=O)c3c(O)cc(O[C@@H]4O[C@H](CO[C@@H]5O[C@@H](C)[C@H](O)[C@@H](O)[C@H]5O)[C@@H](O)[C@H](O)[C@H]4O)cc3O2)cc1O` [hesperidin] the “protection effect on the death of retinal ganglion cells” value was “excellent protection effect on the death of retinal ganglion cells”.
